Assay results: patent US20160200684A2, “Pharmaceutical Compositions for the Treatment of CFTR-Mediated Disorders” (Vertex Pharmaceuticals Incorporated, priority 2012, published 2016)
Read-outs that look alike come from different tables or passages of the source.

Experiments:
Type in all cases: physicochemical
[1] = Stability of Compound 2 aqueous suspension in 0.5% methylcellulose/0.5% polysorbate 80; details: for conversion of salt form in suspension vehicle: at T(0), XRPD, 1H NMR
Experimental: Methylcellulose (0.5 g) was combined with 99.0 g of purified water in a beaker and stirred in a 60-70° C. water bath for 30′-1 hr. The solution was stirred in a 0° C. ice/water bath for another 30′ or until clear. Polysorbate 80 (0.5 g) was added and stirring at room temperature followed for 30′-1 hr or until a clear solution was obtained.
The appropriate amount of Compound 2 HCl salt based on free base was weighed and transferred to a scintillation vial. The desired amount of 0.5% methylcellulose and 0.5% polysorbate 80 stock solution for making a 6 mg/mL based on free base (6.48 mg/mL based on HCl salt) was transferred into the vial and sonicated for 20 minutes with alternate stirring for 1-2 minutes. The solution was homogenized for approximately 1-2 minutes.

[2] = Stability of Compound 2 aqueous suspension in 0.5% methylcellulose; details: room temperature; methylcellulose formulation
Experimental: A 100 mL stock solution of 0.5% by weight methylcellulose was prepared by stirring 0.5 g of methylcellulose with 99.5 g of purified water until completely dissolved (approximately 24 hours). The appropriate amount of Compound 2 HCl salt based on free base was weighed and transferred to a scintillation vial. The desired amount of 0.5% methylcellulose stock solution for making a 6 mg/mL based on free base (6.48 mg/mL based on HCl salt) was transferred into the vial and sonicated for 20 minutes and homogenized for approximately 5 minutes.

[3] = Solubility of Compound 3 in solvents
[4] = 0.5% methylcellulose/0.5% polysorbate 80

Cc1ccc(NC(=O)C2(c3ccc4c(c3)OC(F)(F)O4)CC2)nc1-c1cccc(C(=O)O)c1 [Compound 2 Form I, 3-(6-(1-(2,2-difluorobenzo[d][1,3]dioxol-5-yl)cyclopropanecarboxamido)-3-methylpyridin-2-yl)benzoic acid]
chemically stable, no sign of chemical degradation ([1]; room temperature, 0.5% methylcellulose/0.5% polysorbate 80 formulation vehicle): at least 24 hrs
physically and chemically stable, no sign of chemical degradation [2]: at least 24 hrs

Cc1ccc(NC(=O)C2(c3ccc4c(c3)OC(F)(F)O4)CC2)nc1-c1cccc(C(=O)O)c1.Cl [Compound 2 HCl salt, 3-(6-(1-(2,2-Difluorobenzo [d][1,3]dioxol-5-yl)cyclopropanecarboxamido)-3-methylpyridin-2-yl)benzoic acid.HCl salt]
physical stability of suspension [1, 4]: not physically stable
conversion of salt form in suspension vehicle [1, 4]: quickly converted to Compound 2 Form I
conversion of salt form in suspension vehicle ([1]; 0.5% methylcellulose/0.5% polysorbate 80, listed as HCl salt): quickly converted to Compound 2 Form I at T(0)

CC(C)(CO)c1cc2cc(NC(=O)C3(c4ccc5c(c4)OC(F)(F)O5)CC3)c(F)cc2n1C[C@H](O)CO [Compound 3, (S)-1-(2,2-difluorobenzo[d][1,3]dioxol-5-yl)-N-(1-(2,3-dihydroxypropyl)-6-fluoro-2-(1-hydroxy-2-methylpropan-2-yl)-1H-indol-5-yl)cyclopropanecarboxamide]
solubility ([3]; first solvent: ethyl acetate, ethanol, isopropyl alcohol, or acetone): greater than 20 mg/mL
solubility ([3]; organic solvent or mixture, acetonitrile, methanol, ethanol, isopropyl alcohol, acetone, read-out: solubility): > 20 mg/mL
solubility ([3]; second solvent: heptane or water, water, read-out: solubility (poor)): < 1 mg/mL
